Measured values as given in ChEMBL document CHEMBL1687942, “Benzimidazole inhibitors induce a DFG-out conformation of never in mitosis gene A-related kinase 2 (Nek2) without binding to the back pocket and reveal a nonlinear structure-activity relationship” (J Med Chem, 2011).
The source made the active and inactive calls. The calls are words filed in the database; no cut-off is given here.

How the values were obtained:
[1] = molecular target: T1, Serine/threonine-protein kinase PLK1 (Homo sapiens, UniProt P53350); assay: Inhibition of polo-like kinase 1 activity
T1 sequence (P53350 whole entry): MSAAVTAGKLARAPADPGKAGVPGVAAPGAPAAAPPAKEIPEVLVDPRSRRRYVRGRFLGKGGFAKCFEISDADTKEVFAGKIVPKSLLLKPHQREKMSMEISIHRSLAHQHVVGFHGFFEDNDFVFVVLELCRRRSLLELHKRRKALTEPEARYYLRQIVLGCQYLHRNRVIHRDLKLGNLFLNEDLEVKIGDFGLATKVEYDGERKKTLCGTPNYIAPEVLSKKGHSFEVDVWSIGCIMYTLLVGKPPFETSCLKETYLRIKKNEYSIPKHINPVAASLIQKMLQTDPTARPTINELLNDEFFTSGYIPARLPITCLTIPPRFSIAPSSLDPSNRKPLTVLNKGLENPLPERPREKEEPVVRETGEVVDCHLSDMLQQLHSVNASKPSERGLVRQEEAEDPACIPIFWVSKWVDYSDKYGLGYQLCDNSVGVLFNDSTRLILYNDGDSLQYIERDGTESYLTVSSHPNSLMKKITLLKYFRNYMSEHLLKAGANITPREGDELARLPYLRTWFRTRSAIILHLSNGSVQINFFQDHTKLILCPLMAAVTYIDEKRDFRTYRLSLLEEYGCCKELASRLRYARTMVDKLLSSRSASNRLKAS

[2] = Apparent permeability of the compound by PAMPA at pH 7.4
[3] = molecular target: T2, Serine/threonine-protein kinase Nek2 (Homo sapiens, UniProt P51955)
T2 sequence (P51955 whole entry): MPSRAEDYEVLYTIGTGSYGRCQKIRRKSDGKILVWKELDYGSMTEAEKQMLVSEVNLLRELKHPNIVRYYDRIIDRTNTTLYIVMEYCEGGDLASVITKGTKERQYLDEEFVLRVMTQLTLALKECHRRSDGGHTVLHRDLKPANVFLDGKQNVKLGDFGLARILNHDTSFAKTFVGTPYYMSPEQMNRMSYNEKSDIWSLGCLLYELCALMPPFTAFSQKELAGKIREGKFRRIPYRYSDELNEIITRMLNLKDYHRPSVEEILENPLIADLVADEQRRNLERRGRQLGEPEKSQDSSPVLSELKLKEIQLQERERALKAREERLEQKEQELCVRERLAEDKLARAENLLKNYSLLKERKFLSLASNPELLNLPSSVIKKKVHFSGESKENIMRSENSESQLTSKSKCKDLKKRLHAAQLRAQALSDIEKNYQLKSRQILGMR

[4] = molecular target: T1, Serine/threonine-protein kinase PLK1; settings: 200 uM
Description: Inhibition of polo-like kinase 1 activity at 200 uM

[5] = molecular target: T2, Serine/threonine-protein kinase Nek2; assay: Inhibition of NEK2 autophosphorylation preincubated with compound by DELFIA assay
[6] = molecular target: T2, Serine/threonine-protein kinase Nek2; assay: Inhibition of NEK2 assessed as inhibition of substrate phosphorylation preincubated for 5 mins before addition of substrate by DELFIA assay
[7] = molecular target: Tyrosine-protein kinase ABL1 (Mus musculus) (UniProt P00520); assay: Inhibition of mouse Abl at 2 uM
Chain of Tyrosine-protein kinase ABL1 (Mus musculus) (P00520 whole entry): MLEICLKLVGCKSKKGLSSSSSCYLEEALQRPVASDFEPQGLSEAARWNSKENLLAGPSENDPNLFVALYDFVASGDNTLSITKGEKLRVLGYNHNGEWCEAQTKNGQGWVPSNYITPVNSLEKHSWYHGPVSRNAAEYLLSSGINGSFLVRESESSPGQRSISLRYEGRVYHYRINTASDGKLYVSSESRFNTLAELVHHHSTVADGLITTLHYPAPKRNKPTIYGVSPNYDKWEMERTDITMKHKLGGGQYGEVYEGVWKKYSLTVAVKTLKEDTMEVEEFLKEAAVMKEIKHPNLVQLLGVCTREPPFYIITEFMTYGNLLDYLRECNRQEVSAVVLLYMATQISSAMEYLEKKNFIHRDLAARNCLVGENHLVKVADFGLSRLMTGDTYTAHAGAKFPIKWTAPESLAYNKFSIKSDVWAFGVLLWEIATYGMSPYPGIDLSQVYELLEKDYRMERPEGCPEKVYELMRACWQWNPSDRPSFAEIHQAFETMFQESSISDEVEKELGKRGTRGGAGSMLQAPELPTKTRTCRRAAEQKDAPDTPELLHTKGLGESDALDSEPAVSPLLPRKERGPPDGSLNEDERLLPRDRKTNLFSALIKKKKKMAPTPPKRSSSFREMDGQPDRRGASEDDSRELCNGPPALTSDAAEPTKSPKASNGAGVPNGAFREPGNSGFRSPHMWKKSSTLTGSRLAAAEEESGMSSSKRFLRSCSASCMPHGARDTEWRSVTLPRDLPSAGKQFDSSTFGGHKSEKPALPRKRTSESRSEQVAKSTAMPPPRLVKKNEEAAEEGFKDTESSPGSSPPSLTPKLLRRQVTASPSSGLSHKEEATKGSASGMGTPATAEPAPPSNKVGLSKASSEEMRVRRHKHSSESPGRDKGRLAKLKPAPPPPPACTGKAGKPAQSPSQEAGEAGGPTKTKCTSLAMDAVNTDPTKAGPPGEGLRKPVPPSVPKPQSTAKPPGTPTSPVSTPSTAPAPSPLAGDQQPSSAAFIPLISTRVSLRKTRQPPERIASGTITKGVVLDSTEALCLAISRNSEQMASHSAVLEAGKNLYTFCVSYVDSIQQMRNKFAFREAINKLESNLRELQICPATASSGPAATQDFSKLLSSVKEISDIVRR

[8] = molecular target: T1, Serine/threonine-protein kinase PLK1; assay: Inhibition of polo-like kinase 1 activity at 100 uM
[9] = molecular target: T3, Serine/threonine-protein kinase Nek2 (Homo sapiens) (UniProt P51955); assay: Inhibition of NEK2 at 200 uM
T3 sequence (whole entry): T2 sequence (P51955 whole entry)

IC50 [1] [µM] | IC50 [3] [µM] | Structure (SMILES) | other results
< 0.009 | – | CN1CCC(Oc2ccc3ncn(-c4cc(OCc5ccccc5C(F)(F)F)c(C(N)=O)s4)c3c2)CC1 | –
51.3 | – | C[C@@H](Oc1cc(-n2cnc3cc(OC4CCN(C)CC4)ccc32)ccc1C(N)=O)c1ccccc1C(F)(F)F | Papp [2]: 33.4 ×10⁻⁶ cm/s
0.069 | 5.43 | CN1CCC(Oc2ccc3ncn(-c4cc(OCc5ccccc5)c(C(N)=O)s4)c3c2)CC1 | –
1.33 | 64.4 | COc1cc(-n2cnc3ccc(OC4CCN(C)CC4)cc32)sc1C(N)=O | –
5.31 | 86 | COc1cc(-n2cnc3ccccc32)sc1C(N)=O | –
– | – | C[C@H](Oc1cc(-n2cnc3cc(OC4CCN(C)CC4)ccc32)ccc1C(N)=O)c1ccccc1C(F)(F)F | inhibition [4]: inactive
– | – | CC(Oc1cc(-n2cnc3ccc(OC4CCN(C)CC4)cc32)sc1C(N)=O)c1ccccc1C(F)(F)F (racemic) | IC50 [5]: 0.05 µM; IC50 [6]: 0.2 µM
0.066 | 6.57 | CC(Oc1cc(-n2cnc3ccc(OC4CCN(C)CC4)cc32)sc1C(N)=O)c1ccccc1 (racemic) | –
< 0.009 | > 50 | CC(Oc1cc(-n2cnc3ccccc32)sc1C(N)=O)c1ccccc1C(F)(F)F (racemic) | –
0.19 | 0.66 | CC(Oc1cc(-n2cnc3ccc(OC4CCN(C)CC4)cc32)ccc1C(N)=O)c1ccccc1C(F)(F)F (racemic) | –
87.9 | – | CC(Oc1cc(-n2cnc3cc(OC4CCN(C)CC4)ccc32)ccc1C(N)=O)c1ccccc1C(F)(F)F (racemic) | inhibition [7]: Active
15.2 | 0.38 | CC(Oc1cc(-n2cnc3cc(OCCCN(C)C)ccc32)ccc1C(N)=O)c1ccccc1C(F)(F)F (racemic) | –
– | 2.56 | CC(Oc1cc(-n2cnc3cc(OC4CCN(C5CC5)CC4)ccc32)ccc1C(N)=O)c1ccccc1C(F)(F)F (racemic) | inhibition [8]: inactive
– | – | CC(Oc1cc(-n2cnc3cc(OC4CCCCC4)ccc32)ccc1C(N)=O)c1ccccc1C(F)(F)F (racemic) | inhibition [9]: inactive; inhibition [8]: inactive
